Measurements published in patent publication US20060069040A1, “GHB compositions” (priority 2004, published 2006).
Like-named read-outs stand apart in the source and are kept apart here.

Experiments:
[1] = man, GHB given orally; cited from earlier work
CD-1 male mice [2] = assay: Passivity test (sleep induction and sleep time); format: in vivo; conditions: for Passivity test scores (2-8): 10 minutes after injection, 6 non-fasting mice, 0-normal, 8-no struggle
Experimental: (§1) CD-1 male mice (30-40 g) were housed 3 to 4 per cage in the animal care facility on a 12 hour light dark cycle with free access to water and food for at least 1 week before testing.
The passivity test developed by Irwing was used to determine sleep time. After GHB administration, the mice were placed in an unusual position and a score of 2, 4, 6, or 8 was given when the mice ceased to struggle against respectively being suspended vertically, rotated horizontally onto their backs, suspended by their hind limbs or suspended by their forelimbs. Scores on the passivity test were determined every 10 minutes after GHB administration. […] The time between scores of 8 and 2 was defined as the total sleep time.
(§2) Statistical significance between control and treated groups at each time point in the present study was determined by student's t-test. Note that values of motor activity were expressed as a percentage of the baseline value which was normalized to 100%.
The optimal dose of GHB for inducing sleep was determined with the passivity test. GHB was dissolved in 0.9% NaCl and 1% Tween 80 and delivered intraperitoneally (i.p.) to 4 groups of 6 mice that had not been fasting. Each group received either 200 mg/kg, 400 mg/kg, 600 mg/kg and 800 mg/kg. […] For this reason, this dose was used in the initial exploratory studies.

male Wistar rats [3] = assay: EEG/EMG sleep recording after IP dosing; conditions: for NR bout duration (NRBD): lights on
male Wistar rats [4] = assay: Core body temperature (Tb) and locomotor activity (LMA) recording by implanted transmitter; format: in vivo; conditions: IP dosing at ZT19, GHB 200 mg/kg in all drug conditions, comparators and ZT hours in the value
CD-1 male mice [5] = format: in vivo
Experimental: as §1
The Rota-rod is a validated and sensitive tool that has been developed to document neurological deficits after pharmacological treatments. In this test, mice are placed on an accelerating Rota-rod whose revolutions per minute increase from 4 to 40 cycles per minute in about 4 minutes. The time it takes for the mice to fall off the rod is the end point of the test. Initially, the mice were given 3 practice runs on the rod to familiarize themselves with the test procedure. The time that mice remained on the rod was usually between five and ten minutes. A baseline measure was then made, the test drug given and the test procedure run every 20 minutes starting at time 0, immediately after drug administration. The mice were tested for 160 minutes after GHB administration although in some experiments recordings were made for as long as 280 minutes. Motor activity was expressed as a percentage of the baseline value. The time it took the mice to fall off the rod at a given time point after drug administration was divided by the time it took at baseline.
as §2

[6] = cited from earlier work
[7] = rats, IP dosing at ZT19, comparators and ZT hours in the value
[8] = Table 2: i.p., all compounds 800 mg/kg, mice not fasting, n=6, 2′ or 15′ in label = preincubation before GHB
[9] = Table 3: oral, GHB 800 mg/kg, PA 66 mg/kg, mice fasting 12 hours, n=6
[10] = Table 4: GHB orally, GAL/GL/GA intraperitoneally, all 1200 mg/kg, mice fasting 1 hour, n=6

O=C([O-])CCCO.[Na+] [GHB, gamma-hydroxybutyrate sodium salt]
Plasma half-life [1]: about 45 minutes | Passivity test scores (2-8) (CD-1 male mice [2]; GHB 200 mg/kg i.p.): 0 | Passivity test scores (2-8) (CD-1 male mice [2]; GHB 400 mg/kg i.p.): 2 ± 0.38 | Passivity test scores (2-8) (CD-1 male mice [2]; GHB 600 mg/kg i.p.): 4 ± 0.25 | Passivity test scores (2-8) (CD-1 male mice [2]; GHB 800 mg/kg i.p.): 8 ± 0.42 | Time to reliably induce sleep (CD-1 male mice [2]; GHB 800 mg/kg i.p., non-fasting mice): ≤ 10 min | Sleep time (CD-1 male mice [2]; Table 5: orally, all compounds 7.93 mmol/kg, mice fasting 24 hours, n=8/group, mean ± S.E.M.): 35 ± 10 min | GHB induced sleep time (CD-1 male mice [2]; non-fasting mice, n=6/group, GHB 800 mg/kg i.p. alone or immediately after 800 mg/kg i.p. of the named compound): 96.5 ± 5 min | Rats that displayed SW activity (male Wistar rats [3]; immediately following IP dosing, 8 rats): Seven of 8 | Spike and wave (SW) activity in the EEG (male Wistar rats [3]; rats, IP dosing at ZT19, GHB 200 mg/kg in all drug conditions): elicited spike and wave activity (SW) in the EEG during the first hour following dosing | Time spent awake (W), hourly (male Wistar rats [3]; [7]): reduced W compared to vehicle during ZT 21 | Time spent in non-REM (NR) sleep, hourly (male Wistar rats [3]; [7]): significantly greater than vehicle during ZT 21 | NR bout duration (NRBD) (male Wistar rats [3]; rats, ZT 1 and 3): increased NRBD compared to GHB+L-gul (ZT 1, 3), GHB+PA (60 mg/kg) (ZT 1, 3) and GHB+PA (120 mg/kg) (ZT 3) | NR bout duration (NRBD) (male Wistar rats [3]; rats, ZT 5): significantly decreased NRBD during ZT 5 compared to GHB+L-gul and GHB+PA (120 mg/kg) | Locomotor activity (LMA), hourly average (male Wistar rats [4]): significantly lower LMA compared to vehicle (ZT21) | Seizure-like activity (CD-1 male mice [5]; GHB 1200 mg/kg orally, mice): appeared to induce seizure-like activity in many of the mice | Percent of motor activity after GHB administration, 20′ (CD-1 male mice [5]; [8]): 0 ± 0% | Percent of motor activity after GHB administration, 40′ (CD-1 male mice [5]; [8]): 0 ± 0% | Percent of motor activity after GHB administration, 60′ (CD-1 male mice [5]; [8]): 0 ± 0% | Percent of motor activity after GHB administration, 80′ (CD-1 male mice [5]; [8]): 20 ± 2% | Percent of motor activity after GHB administration, 100′ (CD-1 male mice [5]; [8]): 35 ± 12% | Percent of motor activity after GHB administration, 120′ (CD-1 male mice [5]; [8]): 65 ± 5% | Percent of motor activity after GHB administration, 140′ (CD-1 male mice [5]; [8]): 113 ± 20% | Percent of motor activity after GHB administration, 160′ (CD-1 male mice [5]; [8]): 124 ± 20% | Percent of motor activity after GHB administration, 0′ (CD-1 male mice [5]; Table 2: i.p., all compounds 800 mg/kg, mice not fasting, n=6, 2′ or 15′ in label = preincubation before GHB, % of baseline, mean ± S.E.M.): 31 ± 7% | Percent of motor activity after GHB administration (oral), 20′ (CD-1 male mice [5]; [9]): 0 ± 0% | Percent of motor activity after GHB administration (oral), 40′ (CD-1 male mice [5]; [9]): 7 ± 3% | Percent of motor activity after GHB administration (oral), 60′ (CD-1 male mice [5]; [9]): 12 ± 6% | Percent of motor activity after GHB administration (oral), 80′ (CD-1 male mice [5]; [9]): 20 ± 8% | Percent of motor activity after GHB administration (oral), 100′ (CD-1 male mice [5]; [9]): 26 ± 5% | Percent of motor activity after GHB administration (oral), 160′ (CD-1 male mice [5]; [9]): 86 ± 1% | Percent of motor activity after GHB administration (oral), 220′ (CD-1 male mice [5]; [9]): 90 ± 8% | Percent of motor activity after GHB administration (oral), 280′ (CD-1 male mice [5]; [9]): 100 ± 7% | Percent of motor activity after GHB administration, 20′ (CD-1 male mice [5]; [10]): 27 ± 19% | Percent of motor activity after GHB administration, 40′ (CD-1 male mice [5]; [10]): 0 ± 0% | Percent of motor activity after GHB administration, 60′ (CD-1 male mice [5]; [10]): 3 ± 2% | Percent of motor activity after GHB administration, 80′ (CD-1 male mice [5]; [10]): 4 ± 1% | Percent of motor activity after GHB administration, 100′ (CD-1 male mice [5]; [10]): 5 ± 4% | Percent of motor activity after GHB administration, 160′ (CD-1 male mice [5]; [10]): 21 ± 10% | Percent of motor activity after GHB administration, 220′ (CD-1 male mice [5]; [10]): 61 ± 12% | Percent of motor activity after GHB administration, 0′ (CD-1 male mice [5]; Table 4: GHB orally, GAL/GL/GA intraperitoneally, all 1200 mg/kg, mice fasting 1 hour, n=6, mean ± S.E.M.): 58 ± 9% | Duration of reproducible decrease in motor activity (CD-1 male mice [5]; mouse, in vivo): more than 100 minutes | Percent of motor activity after GHB administration (oral), 0′ (CD-1 male mice [5]; mouse, in vivo): 51 ± 1% | Percent of motor activity after GHB administration, 0′ (CD-1 male mice [5]; mouse, in vivo, po): 94 ± 9% | Percent of motor activity after GHB administration, 20′ (CD-1 male mice [5]; mouse, in vivo, po): 2 ± 2% | Percent of motor activity after GHB administration, 40′ (CD-1 male mice [5]; mouse, in vivo, po): 0 ± 0% | Percent of motor activity after GHB administration, 60′ (CD-1 male mice [5]; mouse, in vivo, po): 4 ± 1% | Percent of motor activity after GHB administration, 80′ (CD-1 male mice [5]; mouse, in vivo, po): 10 ± 2% | Percent of motor activity after GHB administration, 100′ (CD-1 male mice [5]; mouse, in vivo, po): 22 ± 7% | Percent of motor activity after GHB administration, 160′ (CD-1 male mice [5]; mouse, in vivo, po): 104 ± 26% | Percent of motor activity after GHB administration, 220′ (CD-1 male mice [5]; mouse, in vivo, po): 122 ± 23% | Percent of motor activity after GHB administration, 280′ (CD-1 male mice [5]; mouse, in vivo, po): 117 ± 13% | Duration of depressed motor activity (CD-1 male mice [5]; oral GHB at 1200 mg/kg, mice): at least 220 minutes

O=C1O[C@H]([C@@H](O)CO)[C@H](O)[C@@H]1O [GL, L-gulono-γ-lactone]
Effect on GHB sleep time (CD-1 male mice [2]; Example 6: 7.93 mmol/kg of named agent mixed in solution with GHB 7.93 mmol/kg, oral gavage, 8 mice): appeared to increase the sleep time | Effect on motor depression by oral GHB (CD-1 male mice [5]; Example 5: named compound 1200 mg/kg i.p. with GHB 1200 mg/kg orally): further significantly enhanced | Effect on motor inhibition produced by GHB (CD-1 male mice [5]; mouse, in vivo, po): neither oral gluconic acid lactone or gulonolactone augmented the depressant effects of GHB

O=C(O)Cc1ccccc1 [PA, phenylacetic acid]
Effect on inhibitory effects of GHB on motor activity (CD-1 male mice [5]; Example 4: phenylacetic acid […] mg/kg mixed in solution with GHB 800 mg/kg, oral, vs GHB 800 mg/kg oral alone): significantly intensified and prolonged the inhibitory effects of GHB on motor activity

O=C([O-])Cc1ccccc1.[Na+] [phenylacetate sodium salt]
Solubility in saline [6]: can be readily dissolved in saline
